In ChEMBL document CHEMBL1157846, “Synthesis and theoretical studies on energetics of novel N- and O- perfluoroalkyl triazole tagged thienopyrimidines--their potential as adenosine receptor ligands” (Eur J Med Chem, 2010):

Experiments:
Adenosine receptor A2a = Adenosine receptor A2a (Rattus norvegicus, UniProt P30543)
Description: Displacement of [3H]MSX-2 from adenosine A2A receptor in rat brain striatal membrane after 30 mins by scintillation counting

Adenosine receptor A1 = molecular target: T1, Adenosine receptor A1 (Rattus norvegicus, UniProt P25099)
T1 sequence (P25099 whole entry): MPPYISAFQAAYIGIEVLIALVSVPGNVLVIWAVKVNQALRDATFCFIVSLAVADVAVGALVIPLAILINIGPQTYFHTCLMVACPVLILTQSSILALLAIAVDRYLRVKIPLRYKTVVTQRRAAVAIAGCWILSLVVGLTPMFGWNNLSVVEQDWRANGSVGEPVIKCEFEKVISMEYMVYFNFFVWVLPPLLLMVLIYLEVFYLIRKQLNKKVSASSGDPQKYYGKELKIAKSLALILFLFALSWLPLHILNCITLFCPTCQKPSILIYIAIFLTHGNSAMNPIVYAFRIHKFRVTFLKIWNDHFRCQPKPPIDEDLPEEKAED
Description: Displacement of [3H]CCPA from adenosine A1 receptor in rat brain cortical membrane after 90 mins by scintillation counting

Chain of Adenosine receptor A2a (P30543 whole entry): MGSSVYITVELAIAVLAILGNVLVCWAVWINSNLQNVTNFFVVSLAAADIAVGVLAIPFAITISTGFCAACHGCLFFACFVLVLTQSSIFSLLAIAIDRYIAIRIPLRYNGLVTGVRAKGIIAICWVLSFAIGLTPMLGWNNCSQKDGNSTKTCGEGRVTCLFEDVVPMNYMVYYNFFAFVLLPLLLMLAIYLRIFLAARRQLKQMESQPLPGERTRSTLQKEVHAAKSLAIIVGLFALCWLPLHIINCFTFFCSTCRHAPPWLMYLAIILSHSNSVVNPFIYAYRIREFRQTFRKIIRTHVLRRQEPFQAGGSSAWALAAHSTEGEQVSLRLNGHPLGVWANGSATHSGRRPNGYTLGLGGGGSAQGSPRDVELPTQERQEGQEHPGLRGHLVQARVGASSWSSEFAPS

SMILES	Ki (Adenosine receptor A2a)	Ki (Adenosine receptor A1)
C#CCn1c(-c2ccccc2)nc2sc(C)c(C)c2c1=O	0.029 µM	–
C#CCn1c(-c2ccccc2)nc2sc3c(c2c1=O)CCC3	9.7 µM	0.005 µM
C#CCn1c(C)nc2sc(C)c(C)c2c1=O	3.79 µM	0.006 µM
C#CCOc1nc(-c2ccccc2)nc2sc3c(c12)CCCC3	0.003 µM	–
C#CCn1c(Cc2ccc(F)cc2)nc2sc(C)c(C)c2c1=O	7.62 µM	0.004 µM
C#CCn1c(C)nc2sc3c(c2c1=O)CCCC3	0.007 µM	–
C#CCn1c(C)nc2sc3c(c2c1=O)CCC3	0.018 µM	0.006 µM
C#CCn1c(Cc2ccc(F)cc2)nc2sc3c(c2c1=O)CCCC3	0.014 µM	0.021 µM
